Results reported in PubChem BioAssay AID256 (DTP/NCI, 2004).
Values joined by “and” are separate entries in the source; they are usually repeats but may differ in a detail not shown here. Identical values can stand only once. Inconclusive results and toxic doses are left out. How the source made its calls: active means survival T/C of 150% or more; inactive means T/C below 125% in these data.

Test system: CD2F1 mice, L1210 leukemia ip, survival T/C
Test: NCI In Vivo Anticancer Drug Screen. Data for tumor model L1210 Leukemia (intraperitoneal) in CD2F1 (CDF1) mice
Conditions: higher = longer survival
Procedure, shortened: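 Implant tumor; dose compound or vehicle; measure endpoint in both groups; report treated divided by control.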

[1] = endpoint: mean survival time, dose: 100.0 mg/kg/injection, schedule: Q04DX003 (ip), vehicle: saline with Tween-80
[2] = endpoint: mean survival time, dose: 200.0 mg/kg/injection, schedule: Q04DX003 (ip), vehicle: saline with Tween-80
[3] = endpoint: mean survival time, dose: 400.0 mg/kg/injection, schedule: Q04DX003 (ip), vehicle: saline with Tween-80
[4] = endpoint: mean survival time, dose: 100.0 mg/kg/injection, schedule: Q01DX009 (ip), vehicle: saline with Tween-80
[5] = endpoint: mean survival time, dose: 200.0 mg/kg/injection, schedule: Q01DX009 (ip), vehicle: saline with Tween-80
[6] = endpoint: mean survival time, dose: 100.0 mg/kg/injection, schedule: Q01DX001 (ip), vehicle: saline with Tween-80
[7] = endpoint: mean survival time, dose: 200.0 mg/kg/injection, schedule: Q01DX001 (ip), vehicle: saline with Tween-80
[8] = endpoint: mean survival time, dose: 400.0 mg/kg/injection, schedule: Q01DX001 (ip), vehicle: saline with Tween-80
[9] = endpoint: mean survival time, dose: 25.0 mg/kg/injection, schedule: Q01DX009 (ip), vehicle: saline with Tween-80
[10] = endpoint: mean survival time, dose: 50.0 mg/kg/injection, schedule: Q01DX009 (ip), vehicle: saline with Tween-80
[11] = endpoint: mean survival time, dose: 100.0 mg/kg/injection, schedule: Q04DX002 (ip), vehicle: saline with Tween-80
[12] = endpoint: mean survival time, dose: 200.0 mg/kg/injection, schedule: Q04DX002 (ip), vehicle: saline with Tween-80
[13] = endpoint: mean survival time, dose: 100.0 mg/kg/injection, schedule: Q04DX003 (ip), vehicle: saline
[14] = endpoint: mean survival time, dose: 200.0 mg/kg/injection, schedule: Q04DX003 (ip), vehicle: saline

Measured: T/C

Cc1cn(C2CC3OP(=O)(C(C)(C)C#N)OCC3O2)c(=O)[nH]c1=O (stereo unspecified)
inactive: endpoint: median survival time, dose: 12.5 mg/kg/injection, schedule: Q01DX005 (ip), vehicle: distilled water + Tween-80 101 % of control | endpoint: median survival time, dose: 25.0 mg/kg/injection, schedule: Q01DX005 (ip), vehicle: distilled water + Tween-80 100 % of control | endpoint: median survival time, dose: 50.0 mg/kg/injection, schedule: Q01DX005 (ip), vehicle: distilled water + Tween-80 103 % of control | endpoint: median survival time, dose: 100.0 mg/kg/injection, schedule: Q01DX005 (ip), vehicle: distilled water + Tween-80 100 % of control | endpoint: median survival time, dose: 200.0 mg/kg/injection, schedule: Q01DX005 (ip), vehicle: distilled water + Tween-80 97 % of control

Cc1cccc(N(C)C(=S)Oc2ccc3ccccc3c2)c1
inactive: endpoint: mean survival time, dose: 50.0 mg/kg/injection, schedule: Q01DX009 (ip), vehicle: Klucel (hydroxypropylcellulose) (HPC) 112 % of control | endpoint: mean survival time, dose: 100.0 mg/kg/injection, schedule: Q01DX009 (ip), vehicle: Klucel (hydroxypropylcellulose) (HPC) 89 % of control | endpoint: mean survival time, dose: 200.0 mg/kg/injection, schedule: Q01DX009 (ip), vehicle: Klucel (hydroxypropylcellulose) (HPC) 89 % of control

COC1OCCC(C)O1 (stereo unspecified)
inactive: endpoint: mean survival time, dose: 100.0 mg/kg/injection, schedule: Q04DX002 (ip), vehicle: saline 104 % of control | endpoint: mean survival time, dose: 200.0 mg/kg/injection, schedule: Q04DX002 (ip), vehicle: saline 104 % of control | endpoint: mean survival time, dose: 400.0 mg/kg/injection, schedule: Q04DX002 (ip), vehicle: saline 107 % of control

O=C(CCN1C(=O)c2ccccc2C1=O)c1ccc(O)cc1
inactive: [1] 93 % of control | [2] 98 % of control | [3] 92 % of control

COc1cc(C(=O)N/N=C/c2ccc(N(C)C)cc2)cc(OC)c1OC
inactive: [4] 119 % of control | [5] 98 % of control

Nc1ccc2sccc2c1
inactive: [1] 103 % of control | [2] 102 % of control | [3] 101 % of control

O=C(O)c1c(F)c(F)c(F)c(Br)c1F
inactive: [1] 93 % of control | [2] 93 % of control

CS(=O)(=O)Cc1cnc(N)nc1-c1ccccc1
inactive: [6] 94 % of control | [7] 97 % of control | [8] 94 % of control

CC(=O)Oc1cccc(C(C)=O)c1
inactive: [1] 102 % of control | [2] 100 % of control | [3] 104 % of control

O=C(O)CCC1CC(=O)OC12CCCCC2 (stereo unspecified)
inactive: [6] 96 % of control | [7] 96 % of control | [8] 91 % of control

CN1C(=O)NC(c2ccc(Cl)cc2)(c2ccc(Cl)cc2)C1=O
inactive: endpoint: mean survival time, dose: 12.5 mg/kg/injection, schedule: Q01DX009 (ip), vehicle: distilled water + Tween-80 93 % of control | endpoint: mean survival time, dose: 12.5 mg/kg/injection, schedule: Q01DX009 (ip), vehicle: saline with Tween-80 97 % of control | endpoint: mean survival time, dose: 25.0 mg/kg/injection, schedule: Q01DX009 (ip), vehicle: distilled water + Tween-80 95 % of control | [9] 101 % of control | endpoint: mean survival time, dose: 50.0 mg/kg/injection, schedule: Q01DX009 (ip), vehicle: distilled water + Tween-80 103 % of control | [10] 101 % of control | endpoint: mean survival time, dose: 100.0 mg/kg/injection, schedule: Q01DX009 (ip), vehicle: distilled water + Tween-80 98 % of control | [4] 89 % of control | endpoint: mean survival time, dose: 200.0 mg/kg/injection, schedule: Q01DX009 (ip), vehicle: distilled water + Tween-80 98 % of control | [5] 91 % of control

O=C1c2ccccc2C(=O)C1c1cc2ccccc2cn1
inactive: endpoint: mean survival time, dose: 50.0 mg/kg/injection, schedule: Q04DX002 (ip), vehicle: saline with Tween-80 91 % of control | [6] 87 % of control | [11] 95 % of control | [7] 91 % of control | [12] 91 % of control

CCNc1nc(NC(C)C)nc(SC)n1
inactive: [10] 104 % of control | [4] 101 % of control | [13] 97 % of control | [5] 117 % of control | [14] 101 % of control

CC1=C(/C=C/C(C)=C/C=C/C(C)=C/CO)C(C)(C)CCC1
inactive: endpoint: mean survival time, dose: 150.0 mg/kg/injection, schedule: Q01DX001 (ip), vehicle: alkali diluted with saline 102 % of control | endpoint: mean survival time, dose: 150.0 mg/kg/injection, schedule: Q01DX001 (ip), vehicle: distilled water + alcohol 112 % of control | endpoint: mean survival time, dose: 150.0 mg/kg/injection, schedule: Q01DX001 (ip), vehicle: other 112 % of control | endpoint: mean survival time, dose: 150.0 mg/kg/injection, schedule: Q01DX001 (ip), vehicle: saline 102 % of control | endpoint: mean survival time, dose: 150.0 mg/kg/injection, schedule: Q11HX001 (ip), vehicle: saline 102 % of control | endpoint: mean survival time, dose: 300.0 mg/kg/injection, schedule: Q01DX001 (ip), vehicle: alkali diluted with saline 99 % of control and 100 % of control | endpoint: mean survival time, dose: 300.0 mg/kg/injection, schedule: Q01DX001 (ip), vehicle: distilled water + alcohol 108 % of control | endpoint: mean survival time, dose: 300.0 mg/kg/injection, schedule: Q01DX001 (ip), vehicle: other 108 % of control | endpoint: mean survival time, dose: 300.0 mg/kg/injection, schedule: Q01DX001 (ip), vehicle: saline 103 % of control | endpoint: mean survival time, dose: 300.0 mg/kg/injection, schedule: Q11HX001 (ip), vehicle: saline 103 % of control

NC/C(=N\O)c1ccc(Cl)cc1
inactive: endpoint: mean survival time, dose: 100.0 mg/kg/injection, schedule: Q01DX001 (ip), vehicle: saline 97 % of control | endpoint: mean survival time, dose: 200.0 mg/kg/injection, schedule: Q01DX001 (ip), vehicle: saline 103 % of control

Oc1ccccc1N=Cc1ccccc1
inactive: [13] 102 % of control | [14] 100 % of control | endpoint: mean survival time, dose: 400.0 mg/kg/injection, schedule: Q04DX003 (ip), vehicle: saline 101 % of control

CCO[Si](C)(OCC)OCC
inactive: endpoint: mean survival time, dose: 50.0 mg/kg/injection, schedule: Q01DX009 (ip), vehicle: saline 101 % of control | endpoint: mean survival time, dose: 100.0 mg/kg/injection, schedule: Q01DX009 (ip), vehicle: saline 101 % of control | endpoint: mean survival time, dose: 200.0 mg/kg/injection, schedule: Q01DX009 (ip), vehicle: saline 96 % of control

CCOc1ccc(-n2c(-c3ccc(Br)cc3)csc2=NC(=O)c2ccccc2F)cc1
inactive: [9] 92 % of control and 100 % of control | endpoint: mean survival time, dose: 25.0 mg/kg/injection, schedule: Q04DX003 (ip), vehicle: saline with Tween-80 88 % of control | [10] 88 % of control | endpoint: mean survival time, dose: 50.0 mg/kg/injection, schedule: Q04DX003 (ip), vehicle: saline with Tween-80 94 % of control | [6] 93 % of control | [1] 92 % of control and 95 % of control | [7] 91 % of control | [5] 88 % of control and 90 % of control | [8] 95 % of control | endpoint: mean survival time, dose: 400.0 mg/kg/injection, schedule: Q01DX009 (ip), vehicle: saline with Tween-80 90 % of control

Cc1cc(=O)c2c(ccc3[nH]c(-c4ccco4)nc32)[nH]1
inactive: [11] 95 % of control | [12] 102 % of control | endpoint: mean survival time, dose: 400.0 mg/kg/injection, schedule: Q04DX002 (ip), vehicle: saline with Tween-80 91 % of control

CCCc1nc2[nH]cnc(=S)c2[nH]1
inactive: endpoint: mean survival time, dose: 12.5 mg/kg/injection, schedule: Q01DX005 (ip), vehicle: other 110 % of control | endpoint: mean survival time, dose: 25.0 mg/kg/injection, schedule: Q01DX005 (ip), vehicle: other 108 % of control | endpoint: mean survival time, dose: 50.0 mg/kg/injection, schedule: Q01DX005 (ip), vehicle: other 96 % of control

CCCOC(=O)c1cc([N+](=O)[O-])cc([N+](=O)[O-])c1Sc1ncnc2nc[nH]c12
inactive: endpoint: mean survival time, dose: 0.63 mg/kg/injection, schedule: Q01DX005 (ip), vehicle: other 102 % of control | endpoint: mean survival time, dose: 1.25 mg/kg/injection, schedule: Q01DX005 (ip), vehicle: other 105 % of control | endpoint: mean survival time, dose: 2.5 mg/kg/injection, schedule: Q01DX005 (ip), vehicle: other 102 % of control | endpoint: mean survival time, dose: 5.0 mg/kg/injection, schedule: Q01DX005 (ip), vehicle: other 105 % of control | endpoint: mean survival time, dose: 10.0 mg/kg/injection, schedule: Q01DX005 (ip), vehicle: other 105 % of control | endpoint: mean survival time, dose: 20.0 mg/kg/injection, schedule: Q01DX005 (ip), vehicle: other 106 % of control | endpoint: mean survival time, dose: 40.0 mg/kg/injection, schedule: Q01DX005 (ip), vehicle: other 113 % of control

C1CC[N-]CC1.[Cl][Au]([Cl])[Cl]
inactive: [9] 97 % of control | [10] 100 % of control | [1] 96 % of control

CS(C)=C1C(=O)NC(=S)NC1=O
inactive: endpoint: median survival time, dose: 20.75 mg/kg/injection, schedule: Q01DX009 (ip), vehicle: saline with Tween-80 108 % of control | endpoint: median survival time, dose: 41.5 mg/kg/injection, schedule: Q01DX009 (ip), vehicle: saline with Tween-80 102 % of control | endpoint: median survival time, dose: 83.0 mg/kg/injection, schedule: Q01DX009 (ip), vehicle: saline with Tween-80 111 % of control | endpoint: median survival time, dose: 166.0 mg/kg/injection, schedule: Q01DX009 (ip), vehicle: saline with Tween-80 107 % of control

COc1cc(CC(C)N)ccc1O (stereo unspecified)
inactive: [1] 105 % of control | [2] 100 % of control | [3] 89 % of control
